Reference: the NIST ThermoML archive (doi:10.1021/je100940w)
± gives the expanded uncertainty stated by the source.

Tests used:
[1] = 298.15 K; 101.33 kPa; Liquid; Vibrating tube method
[2] = refractive index (Na D-line) (dimensionless); conditions: 298.15 K; 101.33 kPa; Liquid; Standard Abbe refractometry

Row | SMILES | mass density [1] [kg/m3] | refractive index [2]
1 | CC(=O)CC(C)C [4-methylpentan-2-one] | 795.94 ± 0.14 | 1.3936 ± 0.0005
2 | CCC(C)O (stereo not given) [butan-2-ol] | 802.35 ± 0.24 | 1.3949 ± 0.0005
3 | O [water] |  | 1.3332 ± 0.0005
